# Experimental data as given in PMC10811509 (Advanced Science, 2023).
# No end group written: not given here.
# Legend:
# SH‐SY5Y cells [1] = assay: Cell viability after microinjection
# Procedure: (§1) Cell survival measurements were described in detail in the experimental section. […] White arrows indicate apoptotic cells microinjected with peptide samples. […] Scale bar = 100 µm.
# Experiments were performed at least in triplicate.
# Aβ40 = biological target: T1, Aβ40 (Homo sapiens, UniProt P05067); assay: ITC, APP‐C31 binding to Aβ40; details: read-out: binding affinity (Kd)
# T1 construct: purchased Peptide Institute, Inc. (Osaka, Japan) or Anaspec (Fremont, CA, USA)
# Procedure: Titration experiments composed of 28 injections were conducted. The injection volume was 2 µL for the first injection to minimize effects of bubbles and 10 µL for the remaining injections. […] The initial delay was 1800 s and the reference power was 10 µcal s^−1. […] The binding isotherms after baseline correction were fitted to the one set of sites binding model incorporated in the MicroCal Origin 7.0 software.^[ [84] ^]
# Figure S10. Interaction of Ab40 with APP-C31 monitored by ITC. The ITC thermogram (upper panel) and binding isotherm (lower panel) were obtained upon titration of APP-C31 into Ab40. The Kd value was calculated from three independent measurements. Conditions: [Ab40] = 30 µM; [APP-C31] = 600 µM; 20
# [2] = system: Aβ in hippocampi of C57BL/6J mice; assay: Immunohistochemistry of hippocampus after stereotaxic peptide injection, Aβ (6E10, thioflavin‐S); format: in vivo, mouse; details: hippocampal injection of Aβ40 (100 µM) and APP‐C31 (200 µM), 1 µL; 10 days; n = 3
# [3] = system: Iba1‐positive microglial cells in hippocampi of C57BL/6J mice; assay: Immunohistochemistry of hippocampus after stereotaxic peptide injection, microglia (Iba1); format: in vivo, mouse; details: hippocampal injection of Aβ40 (100 µM) and APP‐C31 (200 µM), 1 µL; 10 days; n = 5
# Procedure: 15 neurons were analyzed per each condition. […] Scale bar = 100 µm. […] Scale bar = 200 µm. f) Quantification results of the 6E10‐positive area and Iba1‐positive cells, calculated based on the fluorescence signals.
# All experiments were performed in accordance with approved animal protocols and guidelines established by Korea Research Institute of Bioscience and Biotechnology (KRIBB). C57BL/6J (11 weeks old; 30 g) were anesthetized by the intraperitoneal injection of tribromoethanol (320 mg kg^−1, i.p.) and positioned in a stereotaxic apparatus. […] All infusions were given using a Hamilton syringe equipped with a 26‐gauge beveled needle and attached to a Nanojet stereotaxic syringe pump (Chemyx, Inc., TX, USA). Infusions were delivered at a rate of 0.2 µL min^−1. […]
# Mice were perfused with phosphate‐buffered saline (GIBCO) and 4% paraformaldehyde (PFA) solution, and then the brains were post‐fixed with 4% PFA overnight and dehydrated with 30% sucrose solution. […] Immunofluorescence staining was performed as previously described^[ [83] ^] using anti‐Aβ antibody (6E10; 1:1,000), anti‐APP antibody (Y188; 1:500), anti‐Iba1 antibody (1:1,000, Wako Life Sciences Inc., Japan), an appropriate fluorescence‐conjugated secondary antibody, and Hoechst 33 258 (1:10,000; Life Technologies, CA, USA) for counterstaining. […]
# [4] = system: human neurons differentiated from H9 human embryonic stem cells; assay: Neurite outgrowth in human neurons; format: cell-based
# Procedure: Human neurons were differentiated from neural progenitor cells (NPCs), which are derived from human embryonic stem cells (hESCs), WA09 (also known as H9). hESCs were maintained on inactivated mouse embryonic fibroblasts (MEFs) in hESC‐media comprising DMEM/F12 (GIBCO) with MEM non‐essential amino acids (MEM NEAA; GIBCO), sodium bicarbonate (14 mM; Sigma‐Aldrich), L‐glutamine (1 mM; Sigma‐Aldrich), β‐mercaptoethanol (100 µM; Merck Millipore, Billerica, MA, USA), knockout serum replacement (20% v/v; GIBCO), and bFGF (10 ng mL^−1; R&D systems, McKinley Place, MN, USA). MEFs were collected from E13.5 CrljOri:CD1 (ICR) mice (Orientbio, Seongnam, Republic of Korea) and inactivated with 10 µg mL^−1 of mitomycin C (AG Scientific, San Diego, CA, USA) in 2 h. hESC colonies were dissociated with Collagenase IV and plated onto Petri dishes in hESC‐media to form embryoid bodies (EBs). […] The treatment was continued for a week, followed by plating onto growth factor reduced matrigel (BD biosciences)‐coated dishes in DMEM/F12 + glutamax (GIBCO) with N2 and B27 supplements (N2/B27 media) and laminin (1 mg mL^−1; GIBCO). […]
# Human NPCs were differentiated into neurons for 2 d and the media was replaced by fresh media. […] The neurite of a neuron measured from the soma to the tip was analyzed using Neuron J program of Fiji software.^[ [81] ^]
# SH‐SY5Y cells [5] = assay: Annexin V staining (apoptosis) after microinjection; details: 24 h; for Pearson's coefficient (r), annexin V / Texas Red‐labeled dextran: n = 3–5
# Procedure: as §1
# After 24 h incubation, the cells were washed with annexin‐binding buffer and stained with annexin V‐Alexa Fluor 488 for detecting apoptosis following the manufacturer's instruction (FITC Annexin V/Dead Cell Apoptosis Kit; V13241, Invitrogen). Fluorescent responses of annexin V and Texas Red‐labeled dextran were identified by a microscope with a GFP light cube [excitation at 470 (±22) nm and emission at 525 (±50) nm] and a Cy5 light cube [excitation at 628 (±40) nm and emission at 685 (±40) nm], respectively. At least five randomly selected fields per conditions were captured with a microscope. Pearson's correlation coefficient for the indication of co‐localization was calculated with the Coloc2 plugin in Fiji software.^[ [79] ^]
# [6] = APP‐C31 (10 µM) or Aβ40 (10 µM) alone
# T1 sequence (P05067 672-711): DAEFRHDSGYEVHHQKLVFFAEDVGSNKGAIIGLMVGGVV
sequence,measurement,setting,value
AAVTPEERHLSKMQQNGYENPTYKFFEQMQN [APP‐C31],cell viability,SH‐SY5Y cells [1]; 10 µM,86%
same,cell viability,"SH‐SY5Y cells [1]; Cu(II)–Aβ40 (10 µM) with APP‐C31 (10 µM), 24 h, n = 3–5",78%
same,Kd,Aβ40,150 µM
same,6E10‐positive area vs Aβ40 alone,[2],significantly enhanced
same,number of Iba1‐positive microglial cells vs Aβ40 only,[3],3.7 fold
same,averaged neurite length,"[4]; Aβ40 20 µM with stoichiometric or suprastoichiometric APP‐C31, 24 h",further decreased
same,neurite morphology,"[4]; Aβ40 20 µM with various concentrations of APP‐C31, 72 h",fragmentation of neurites
same,green fluorescence of annexin V,SH‐SY5Y cells [5]; [6],did not significantly show the green fluorescence of annexin V
same,"Pearson's coefficient (r), annexin V / Texas Red‐labeled dextran",SH‐SY5Y cells [5]; [6],≈ 0.2
same,green fluorescence of annexin V,SH‐SY5Y cells [5]; both APP‐C31 (10 µM) and Aβ40 (10 µM),intense green fluorescence of annexin V
same,"Pearson's coefficient (r), annexin V / Texas Red‐labeled dextran","SH‐SY5Y cells [5]; both APP‐C31 (10 µM) and Aβ40 (10 µM), **p < 0.01",≈ 0.6
